Results on ten molecules are retold here after patent US20080050355A1, “PROTECTION OF BIOACTIVE FOOD INGREDIENTS BY MEANS OF ENCAPSULATION” (COMPAGNIE GERVAIS DANONE, priority 2004, published 2008).

One series relates to pathogenic strains. To be noted: In vitro, cited from earlier work.
The conditions of series [1]: Dog, 10 g/300 mL water by stomach tube; cancelled by naloxone; Defilippi 1986; cited from earlier work.
For series [2] the following is noted: In vivo animal; Migliore-Samour 1988; cited from earlier work.
The conditions of series [3]: Human hypertension (36 patients), after 8 weeks' ingestion of 95 mL/d; Hata 1996; cited from earlier work.
For series [4] the following is noted: Hypertensive rats, after ingestion; Nakamura 1995; cited from earlier work.
The conditions of series [5]: Normal rats; Nakamura 1995; cited from earlier work.
For the next series, the system named is platelet aggregation. Particulars: In vitro; Jollès 1986; cited from earlier work.
Series [6] deals with ferment YC380 (Chr. Hansen). The series is described as follows: Fermentation of milk mix containing hydrolysate up to pH 4.7, residual peptides by HPLC-MS/MS. The class given is physicochemical. As to the method:
FIG. 3: Compared peptide profiles (LC-MS/MS chromatograms) of a milk “mix” containing 1.5 g/L DMV C12® hydrolysate before (1) and after (2) fermentation up to pH 4.7 by the lacetic ferment Hansen YC380. Almost all the peptides of the hydrolysate, including the bioactive C12 peptide (fragment αS1[23-34] disappeared after metabolisation by the ferment strains.
(§1) Protocol: the medium was prepared by hydrating a skimmed milk powder at 120 g/L, to which 1.5 g/L of Lactium® ingredient is added (corresponding to approximately 30 mg/L αs1 [91-100] bioactive peptide) then pasteurised at 95° C. for 8 minutes.
(§2) The lacetic ferment was added at a percentage of 0.02% and fermentation was conducted at the optimal temperature of the chosen ferment (between 37 and 42° C.) up to a pH of 4.70.
Analysis of the residual peptides, in particular of the bioactive peptide αS1[91-100], was conducted using a HPLC method coupled to a detector of MS/MS type as described below: • the sample was prepared by diluting the fermented medium in a mixture of water, methanol and trifluoroacetic acid (50/50/0.1%) to a ratio of approximately 1 to 6. […] For example the αS1[91-100] peptide was isolated from its mass (double charged ion of mass 634.5 Da) and quantified from the intensity of its characteristic daughter ions after fragmenting (ions with m/z 991.5 Da, 771.5 Da and 658.3 Da). […]

For a further series, the system named is fermented mass. The series is described as follows: Storage of fermented mass with Lactium encapsulated in palm oil emulsion. The series is classed as physicochemical. As to the method:
FIG. 6: Illustration of the change in content of encapsulated bioactive ingredient over time (storage at 4° C.).
FIG. 7: Compared peptide profiles (LC-MS/MS chromatograms) of a milk mix containing 1.5 g/L Lactium® added in the form of an emulsion in palm oil according to the present invention, immediately after addition to the fermented mass (1) and after 14 days' storage at 10° C. (2).
The oil was melted at 50° C. to obtain total absence of crystals, and the Lactium® containing the bioactive food ingredient αS1(91-100] was gradually added under magnetic stirring (maintained at 50° C.).
A type of syrup was prepared from water and the premix of palm oil/bioactive food ingredient. The bioactive food ingredient was gradually added to the water (30° C.) under Ultraturax stirring (22000 rpm), the palm content of the solution being arbitrarily fixed at […].
The emulsion obtained was easily pumpable at 30° C.-35° C., but became progressively firmer as soon as the temperature fell to below 25° C.-30° C. (progressive recrystallisation of the palm oil). The use of a food emulsifier (e.g. Lactem® supplied by Danisco) to the proportion of 0.5%/fat led to obtaining a population of fatty globules that was less heterogeneous.

Series [7] in a line: Storage of fermented then thermised product with peptide added after fermentation. The class given is physicochemical. To be noted: thermised at 75° C. for 1 minute, stored at 10° C. until BBD (FIG. 5). Here is the method: FIG. 5: Curves illustrating changes in the residual content of αS1[91-100] bioactive peptide added after fermentation, in a product fermented and then thermised at 75° C. for 1 minute and stored at 10° C. until the Best Before Date (BBD).
This solution effectively has numerous drawbacks: • thermisation of a fermented milk mass implies the use of stabilisers added before the heat treatment (pectins, starches, carrageenans, etc.) which complicates the method and substantially increases the cost of the formula; • the industrial production line is more complex and requires specific, higher investment; • the product no longer benefits from quality labels related to products containing living ferments (yoghurt type), and thereby loses the benefits associated with the consumption of lacetic ferments; • the organoleptic impact (generally negative) is significant.

For series [8], the system named is ferment consisting of a mixture of strains 1-2783, 1-2774, 1-2835 and 1-1968. The series is described as follows: Fermentation of milk mix containing Lactium up to pH 4.70, residual peptides by HPLC-MS/MS. The series is classed as physicochemical. Particulars: 1.5 g/L Lactium® added before fermentation. As to the method:
as §1, §2
Analysis of the residual peptides, in particular of the bioactive peptide αS1[91-100], was conducted using a HPLC method coupled to a detector of MS/MS type as described below: • the sample was prepared by diluting the fermented medium in a mixture of water, methanol and trifluoroacetic acid (50/50/0.1%) to a ratio of approximately 1 to 6. […] The peptides were eluted in conventional manner against an increasing gradient of solvent B (Acetonitrile+0.100% formic acid) in solvent A (Water+0.106% formic acid) for a time of 40 min to 2 hours in relation to desired resolution. • detection was made using a specific detector of MS/MS type, for example of ion trap type such as the Esquire 3000+(Bruker, Daltonique, rue de l'Industrie 67166 Wissembourg Cedex) adjusted either for global analysis of the peptide content (MS-MS mode) or for precise, specific quantification of a peptide from its characteristic fragments. […]

The subject of series [9] is Pure strains (S. thermophilus). The series can be described thus: Fermentation of reconstituted milk with 1.5 g/L Lactium by pure strains. The series is classed as physicochemical. To be noted: milk mix containing 1.5 g/L Lactium®, fermentation halted at pH 4.7. As to the method:
(§3) Analysis of the residual peptides, in particular of the bioactive peptide αS1[91-100], was conducted using a HPLC method coupled to a detector of MS/MS type as described below: • the sample was prepared by diluting the fermented medium in a mixture of water, methanol and trifluoroacetic acid (50/50/0.1%) to a ratio of approximately 1 to 6. The supernatant after centrifuging formed the sample representing the peptide content of the fermented medium. • this sample was injected into a HPLC chromatography system of Agilent 1100 type (Agilent Technologies France, 1 rue Galvani 91745 Massy Cedex France) equipped with a column adapted for peptide analysis of Waters Symetry® type (5 μm 2.1×150 mm, WAT056975, Waters, France, 5 Rue Jacques Monod, 78280 Guyancourt) at a temperature of 40° C. and flow rate 0.25 ml/min. The peptides were eluted in conventional manner against an increasing gradient of solvent B (Acetonitrile+0.100% formic acid) in solvent A (Water+0.106% formic acid) for a time of 40 min to 2 hours in relation to desired resolution. • detection was made using a specific detector of MS/MS type, for example of ion trap type such as the Esquire 3000+(Bruker, Daltonique, rue de l'Industrie 67166 Wissembourg Cedex) adjusted either for global analysis of the peptide content (MS-MS mode) or for precise, specific quantification of a peptide from its characteristic fragments. For example the αS1[91-100] peptide was isolated from its mass (double charged ion of mass 634.5 Da) and quantified from the intensity of its characteristic daughter ions after fragmenting (ions with m/z 991.5 Da, 771.5 Da and 658.3 Da). In even more precise manner, an internal standard consisting of the same synthetic peptide deuterated twice (characteristic fragment of 993.5 Da) allowed any matrix-related interferences to be overcome and taken into account.
(§4) To verify that this phenomenon is not particular to the two ferments used in paragraph 1.1) above, the main industrial ferments and different pure strains entering into the composition of these ferments, were tested on the same test basis: milk reconstituted from milk powder, to which Lactium® was added at a dose of 1.5 g/L, was fermented under standard conditions (optimal ferment temperature between 37 and 42° C., halting of fermentation at pH 4.7, two repeats). Analysis of the level of αS1[91-100] bioactive peptide was conducted on the sample before and after fermentation.
(§5) In Table 3 above, which reflects consumption of the bioactive peptide aS1[91-100] by different ferments and industrial strains during fermentation of a milk mix containing 1.5 g/L Lactium®, the pure strains were identified by their numbers and respective date of depositing with the CNCM (Institut Pasteur, Paris France).

Series [10] deals with Pure strains (Lactobacillus). The description is as above. The class given is physicochemical. To be noted: milk mix containing 1.5 g/L Lactium®, fermentation halted at pH 4.7. Here is the method:
as §3, §4, §5

Entries after “also recorded” stand apart in the source; their conditions may differ. Where two headings read alike, the source gives them in different places. Peptide text beside a SMILES is read from it.

On to `CC[C@H](C)[C@H](NC(=O)[C@@H]1CCCN1C(=O)[C@H](Cc1cnc[nH]1)NC(=O)[C@H](CCCCN)NC(=O)[C@@H]1CCCN1C(=O)[C@@H](N)CCCNC(=N)N)C(=O)N[C@@H](CCCCN)C(=O)N[C@@H](Cc1cnc[nH]1)C(=O)N[C@@H](CCC(N)=O)C(=O)NCC(=O)N[C@@H](CC(C)C)C(=O)N1CCC[C@H]1C(=O)N[C@@H](CCC(N)=O)C(=O)N[C@@H](CCC(=O)O)C(=O)N[C@H](C(=O)N[C@@H](CC(C)C)C(=O)N[C@@H](CC(N)=O)C(=O)N[C@@H](CCC(=O)O)C(=O)N[C@@H](CC(N)=O)C(=O)N[C@@H](CC(C)C)C(=O)N[C@@H](CC(C)C)C(=O)N[C@@H](CCCNC(=N)N)C(=O)N[C@@H](Cc1ccccc1)C(=O)O)C(C)C` [isracidin] (H-RPKHPIKHQGLPQEVLNENLLRF-OH), for which the “growth of pathogenic strains” value with pathogenic strains (Lahov 1996) is given as “Inhibited growth of pathogenic”.

Turning to Casein, the small intestine motility entry in [1] is listed as “inhibition of small intestine”.

For the molecule “Casein 63-68: fragment 63-68 of bovine β-casein (PGPIPN; UniProt P02666 78-83, looked up, fragment)”, in [2], the in vivo protection entry is “No in vivo protection”.

On to “Casein 191-193: fragment 191-193 of bovine β-casein (LLY; UniProt P02666 206-208, looked up, fragment)”, for which the in vivo protection entry in series [2] was “No in vivo protection”.

Regarding Il-Pro-Pro [Il-Pro-Pro (IPP)], the blood pressure result in series [3] is listed as “reduced blood pressure”; in series [4], “ingestion, reduced blood”; in series [5], “Normal rats: no effect”.

Regarding Lactoferricin, the “growth of pathogenic strains” value in the series on pathogenic strains (Tomita 1994-Zucht 1995) was “Inhibited growth of pathogenic strains”.

For “Peptide 106-116 of bovine κ-casein: fragment 106-116 of bovine κ-casein (MAIPPKKNQDK; UniProt P02668 127-137, looked up, fragment)”, the platelet aggregation entry in the series with platelet aggregation was “Inhibits”.

With Val-Pro-Pro [Val-Pro-Pro (VPP)], the blood pressure result in series [3] was “reduced blood pressure”; in series [4], “ingestion, reduced blood”; in series [5] it was “Normal rats: no effect”.

Take “αS1[23-34]: bioactive C12 peptide, present in the C12 ingredient by DMV International and in Lactium® (FFVAPFPEVFGK; UniProt P02662 38-49, looked up, fragment)”: in series [6] (milk mix containing 1.5 g/L DMV C12® hydrolysate, fermentation up to pH 4.7 (FIG. 3)), the “peptides after fermentation (LC-MS/MS peptide profile)” value is “disappeared”. For the same molecule, the “protection of peptide (LC-MS/MS peptide profile)” value in the series with fermented mass (1.5 g/L Lactium® as emulsion in palm oil, after 14 days' storage at 10° C. (FIG. 7)) is on record as “well protected”.

For “αS1[91-100]: bioactive peptide with relaxing properties contained in the hydrolysate of milk proteins marketed by Ingredia as Lactium® (YLGYLEQLLR; UniProt P02662 106-115, looked up, fragment)”, the “stability of the peptide in heat-treated fermented product” value in series [7] is listed as “possible to ensure the stability; also recorded: possible to preserve”. The “bioactive peptide consumed after fermentation” value in [8] was “more than 95%”; in series [6] (1.5 g/L Lactium® added before fermentation, up to pH 4.70), “more than 95%”. Besides, the “% αS1[91-100] peptide remaining after fermentation” value came out at 0.3% in series [9] (strain 1-1477 (22 Sep. 1994)); 0.3% in series [9] (strain 1-1630 (24 Oct. 1995)); 0.1% in series [10] (strain 1-1519 (30 Dec. 1994)); 0.2% in series [10] (strain 1-1632 (24 Oct. 1995)); 1.6% in series [10] (strain 1-1968 (14 Jan. 1998)); 0.4% in series [10] (strain 1-2809 (19 Feb. 2002)). Further, the “content of encapsulated bioactive ingredient over time” value in the series with fermented mass (encapsulated in palm oil emulsion, added to fermented white mass, storage at 4° C. (FIG. 6)) is listed as “stability”.
